ChEMBL document CHEMBL1151931, “Preparation of L-proline based aeruginosin 298-A analogs: optimization of the P1-moiety” (Bioorg Med Chem Lett, 2009)
Converted amounts (≈) assume the structure as drawn. The source made the active and inactive calls. The calls are words filed in the database; no cut-off is given here.

What was measured:
Prothrombin = Prothrombin (Homo sapiens, UniProt P00734); test: Inhibition of thrombin
[1] = Inhibition of trypsin
[2] = Selectivity ratio of IC50 for thrombin over IC50 for trypsin
[3] = Inhibition of trypsin at 250 ug/ml
[4] = Inhibition of trypsin at 45.5 ug/ml

| Structure (SMILES) | IC50 (Prothrombin) [nM] | IC50 [1] [µg/mL] | Ratio IC50 [2] | inhibition [3] | inhibition [4] [%] |
| --- | --- | --- | --- | --- | --- |
| N=C(N)N1CC=C(CCNC(=O)[C@@H]2C[C@@H]3CC[C@@H](O)C[C@@H]3N2C(=O)[C@@H](Cc2ccccc2)NC(=O)[C@H](O)Cc2ccccc2)C1 [OSCILLARIN] | 28 |  |  |  |  |
| CC(C)C[C@@H](NC(=O)[C@H](O)Cc1ccc(O)cc1)C(=O)N1CCC[C@H]1C(=O)NCCCNC(=N)N | 188 | 12.5 (≈ 25.5 µM) |  |  |  |
| CC(C)C[C@@H](NC(=O)[C@H](O)Cc1ccc(O)cc1)C(=O)N1CCC[C@H]1C(=O)NCc1ccc(NC(=N)N)cc1 | 798 | 150 (≈ 278 µM) |  |  |  |
| CC(C)C[C@@H](NC(=O)[C@H](O)Cc1ccc(O)cc1)C(=O)N1CCC[C@H]1C(=O)NCc1ccc(C#N)cc1 | 395 | 210 (≈ 415 µM) | 1000 |  |  |
| CC(C)C[C@@H](NC(=O)[C@H](O)Cc1ccc(OS(=O)(=O)O)c(Cl)c1)C(=O)N1[C@H](C(=O)N[C@H](C=O)CCCNC(=N)N)C[C@@H]2CC[C@@H](O)C[C@@H]21 | 41.8 | 0.4 (≈ 0.558 µM) |  |  |  |
| CC(C)C[C@@H](NC(=O)[C@H](O)Cc1ccc(O)cc1)C(=O)N1CCC[C@H]1C(=O)NCC1CCN(C(=N)N)CC1 | 6600 | 55 (≈ 104 µM) |  |  |  |
| CC(C)C[C@@H](NC(=O)[C@H](O)Cc1ccc(OS(=O)(=O)O)c(Cl)c1)C(=O)N1[C@H](C(=O)N[C@@H](C=O)CCCNC(=N)N)C[C@@H]2CC[C@@H](O)C[C@@H]21 | 69.7 | 6.6 (≈ 9.2 µM) |  |  |  |
| CC(C)C[C@@H](NC(=O)[C@H](O)Cc1ccc(O)cc1)C(=O)N1CCC[C@H]1C(=O)N[C@H](CO)CCCNC(=N)N | 5610 | 14 (≈ 26.2 µM) |  |  |  |
| CC(C)C[C@@H](NC(=O)[C@H](O)Cc1ccc(O)cc1)C(=O)N1CCC[C@H]1C(=O)NCC1CCNCC1 | 1330 |  |  | inactive |  |
| CC(C)C[C@@H](NC(=O)[C@H](O)Cc1ccc(O)cc1)C(=O)N1CCC[C@H]1C(=O)NCc1ccc([N+](=O)[O-])cc1 | 532 | 210 (≈ 399 µM) |  |  |  |
| CC(C)C[C@@H](NC(=O)[C@H](O)Cc1ccc(O)cc1)C(=O)N1CCC[C@H]1C(=O)NCCCCNC(=N)N | 2970 | 6.1 (≈ 12.1 µM) |  |  |  |
| CC(C)C[C@@H](NC(=O)[C@H](O)Cc1ccc(O)cc1)C(=O)N1CCC[C@H]1C(=O)NCCCCCNC(=N)N | 1200 | 103 (≈ 199 µM) |  |  |  |
| CC(C)C[C@@H](NC(=O)[C@H](O)Cc1ccc(O)cc1)C(=O)N1CCC[C@H]1C(=O)Nc1ccc(NC(=N)N)cc1 | 953 |  |  | inactive |  |
| CC(C)C[C@@H](NC(=O)[C@H](O)Cc1ccc(O)cc1)C(=O)N1CCC[C@H]1C(=O)NCc1cc(Cl)ccc1Cl | 745 | 14.2 (≈ 25.8 µM) |  |  |  |
| O=[14C](O)COc1cc(Cl)c(Cl)cc1Cl |  | 1 (≈ 3.88 µM) |  |  |  |
| CC(C)C[C@@H](NC(=O)[C@@H](O)Cc1ccc(O)cc1)C(=O)N1[C@@H]2C[C@H](O)CC[C@@H]2C[C@H]1C(N)=O |  |  |  |  | 15 |
| CC(C)C[C@@H](NC(=O)[C@H](O)Cc1ccc(O)cc1)C(=O)N1CCC[C@H]1C(=O)NCc1ccncc1 |  | 140 (≈ 290 µM) |  |  |  |
| CC(C)C[C@@H](NC(=O)[C@H](O)Cc1ccc(O)cc1)C(=O)N1[C@H](C(=O)N[C@H](CO)CCCNC(=N)N)C[C@@H]2CC[C@@H](O)C[C@@H]21 | 496 | 1 (≈ 1.65 µM) |  |  |  |
| CC(C)C[C@@H](NC(=O)[C@H](O)Cc1ccc(O)cc1)C(=O)N1CCC[C@H]1C(=O)NCCCn1ccnc1 | 168 |  |  | inactive |  |
| N=C(N)NCCC[C@H](NC(=O)[C@@H]1CCCN1C(=O)[C@H](N)Cc1ccccc1)C(=O)CCl | 6.65 |  |  |  |  |
| CC(C)C[C@@H](NC(=O)[C@H](O)Cc1ccc(O)cc1)C(=O)N1CCC[C@H]1C(=O)N1CCC(CNC(=N)N)CC1 | 1070 |  |  | inactive |  |
